Measurements from PubChem BioAssay AID2060506 (Molecular Pharmacology Branch, DTP, NCI, 2025).
Values joined by “and” are separate entries in the source; they are usually repeats but may differ in a detail not shown here. Identical values can stand only once.

System: 598228-144-R-J1-PDC complex spheroid viability
Assay: Anticancer human tumor 598228-144-R-J1-PDC patient-derived serous endometrial adenocarcinoma cell line growth inhibition [GQUAD]
Details: for viability, T/C: stronger effect = lower value
Source text: DNA G-quadruplex Stabilizer Agents in Combinations in Complex Spheroids
A high-throughput screen of multi-cell type tumor spheroids was designed to identify active combinations of DNA G-quadruplex stabilizer agents and targeted small molecules. Complex spheroids include a stromal component modeled by human endothelial cells (HUVEC) and fibroblasts modeled by human mesenchymal stem cells (MSCs). The concentration ranges selected for each drug and investigational agent were based upon clinically achievable concentrations if the clinical Cmax of the agent was known.
Compounds. The drugs and investigational agents: pidnarulex (CX-5461; NSC782164), APTO-253 (NSC789042), BRACO-19 (NSC847499), peposertib (NSC802822), ceralasertib (NSC780249), elimusertib (NSC800525), camonsertib (NSC841442), AZD-1390 (NSC803789), olaparib (NSC753686), talazoparib (NSC767125), ART-558 (NSC835418), sotorasib (NSC818433), MRTX-1133 (NSC836407), SN-38 (NSC673596), topotecan (NSC609699), etoposide (NSC141540), doxorubicin (NSC123127), gemcitabine (NSC613327), 5-fluorouracil (NSC19893), paclitaxel (NSC125973), vemurafenib (NSC761431), panobinostat (NSC761190), R-306465 (JNJ-16241199; NSC773264), adavosertib (NSC754352), TP-3654 (NSC805149), carboplatin (NSC241240), KSQ-4279 (NSC840948), and staurosporine (NSC755774) were obtained from the National Cancer Institute (NCI) Developmental Therapeutics Program Chemical Repository (34). The FDA-approved anticancer drug set is available from the NCI Developmental Therapeutics Program. […] The stock solutions were prepared in dimethyl sulfoxide (DMSO, Sigma-Aldrich, St. Louis, MO, cat. D2650) at 800-fold the tested concentration and stored at -70 degrees C prior to their use. All drugs and investigational agents were tested over a range starting from a high concentration at or near the clinical Cmax and decreasing in half-log increments. If the clinical Cmax for an agent had not been determined, the highest concentration tested was 10 microM.
2.3 Cell Culture. All cells were maintained in an incubator at 37 degrees C and 5% CO2 with 95% humidity. The PDC lines were cultured according to standard operating procedures established by the NCI PDMR. All PDCs were thawed and cultured in Matrigel-coated flasks prepared with a working solution of 1X Ham's F-12 nutrient mix, without supplementation (Invitrogen, cat. 11765054), 100 U/mL penicillin-streptomycin (Invitrogen, cat. 15140122), and 2.5% Matrigel (Corning Inc., cat. 354248) for the first three passages. The 857933-349-R-J2-PDC line was cultured in 6C/Colon 1B media, which includes advanced DMEM/F-12 (Thermo Fisher Scientific, cat. 12634028), 10 mM HEPES (Thermo Fisher Scientific, cat. 15630080), 1X GlutaMAX supplement (Thermo Fisher Scientific, cat. 35050061), 0.1 mg/mL primocin (InvivoGen, cat. ant-pm-2), 10% defined fetal bovine serum, heat inactivated (HyClone Laboratories Inc., cat. SH30070.03HI), 50% L-WRN conditioned media (ATCC, cat. CRL-3276), 1.25 mM N-Acetyl-L-cysteine (Sigma-Aldrich, cat. A9165), 10 mM nicotinamide (Sigma-Aldrich, cat. N0636), 1X B-27 supplement (Thermo Fisher Scientific, cat. 17504044), 1X N-2 supplement (Thermo Fisher Scientific, cat. 17502048), 10 microM Y-27632 dihydrochloride (Tocris Bioscience, cat. 1254), and 50 ng/mL human EGF recombinant protein (Thermo Fisher Scientific, cat. PHG0311). The 485176-168-R4-J1-PDC line was cultured in Panc media, which includes all 6C/Colon 1B media components plus 100 ng/mL human FGF-10 (Thermo Fisher Scientific, cat. 100-26), 500 nM SB-431542 (Selleckchem, cat. S1067), and gastrin (Tocris, cat. 3006).
[…]

[1] = curve of first compound, second compound 0.0316 µM
[2] = curve of first compound, second compound 0.1 µM
[3] = curve of first compound, second compound 0.316 µM
[4] = curve of first compound, second compound 1 µM
[5] = curve of first compound, second compound 3.16 µM
[6] = curve of first compound, second compound 10 µM
[7] = second compound 0.0316 µM, first compound 0.0316 µM
[8] = second compound 0.0316 µM, first compound 0.1 µM
[9] = second compound 0.0316 µM, first compound 0.316 µM
[10] = second compound 0.0316 µM, first compound 1 µM
[11] = second compound 0.0316 µM, first compound 3.16 µM
[12] = second compound 0.0316 µM, first compound 10 µM
[13] = second compound 0.1 µM, first compound 0.0316 µM
[14] = second compound 0.1 µM, first compound 0.1 µM
[15] = second compound 0.1 µM, first compound 0.316 µM
[16] = second compound 0.1 µM, first compound 1 µM
[17] = second compound 0.1 µM, first compound 3.16 µM
[18] = second compound 0.1 µM, first compound 10 µM
[19] = second compound 0.316 µM, first compound 0.0316 µM
[20] = second compound 0.316 µM, first compound 0.1 µM
[21] = second compound 0.316 µM, first compound 0.316 µM
[22] = second compound 0.316 µM, first compound 1 µM
[23] = second compound 0.316 µM, first compound 3.16 µM
[24] = second compound 0.316 µM, first compound 10 µM
[25] = second compound 1 µM, first compound 0.0316 µM
[26] = second compound 1 µM, first compound 0.1 µM
[27] = second compound 1 µM, first compound 0.316 µM
[28] = second compound 1 µM, first compound 1 µM
[29] = second compound 1 µM, first compound 3.16 µM
[30] = second compound 1 µM, first compound 10 µM
[31] = second compound 3.16 µM, first compound 0.0316 µM
[32] = second compound 3.16 µM, first compound 0.1 µM
[33] = second compound 3.16 µM, first compound 0.316 µM
[34] = second compound 3.16 µM, first compound 1 µM
[35] = second compound 3.16 µM, first compound 3.16 µM
[36] = second compound 3.16 µM, first compound 10 µM
[37] = second compound 10 µM, first compound 0.0316 µM
[38] = second compound 10 µM, first compound 0.1 µM
[39] = second compound 10 µM, first compound 0.316 µM
[40] = second compound 10 µM, first compound 1 µM
[41] = second compound 10 µM, first compound 3.16 µM
[42] = second compound 10 µM, first compound 10 µM
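Also: spheroids exposed to the agents for one week before reading.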
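For viability, T/C in this document: percent of vehicle DMSO control viability so 100% = untreated growth.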

Work on COc1cccc2c1C(=O)c1c(O)c3c(c(O)c1C2=O)CC(O)(C(=O)CO)CC3OC1CC(N)C(O)C(C)O1 (stereo not drawn) + Cc1cnc(CNC(=O)c2c(=O)c3ccc(N4CCCN(C)CC4)nc3n3c2sc2ccccc23)cn1 yielded an IC50 [1] of 807 nM, an IC50 [2] of 745 nM and an IC50 [3] of 779 nM. For the same compound, the IC50 [4] was 529 nM, the IC50 [5] was 335 nM and the IC50 [6] was < 31.6 nM. For the same compound, the viability, T/C [7] was 90.4%, the viability, T/C [8] was 73.9% and the viability, T/C [9] was 79.3%. The viability, T/C [10] was 43.3%, the viability, T/C [11] was 0.82% and the viability, T/C [12] was 0.57%. It also gave a viability, T/C [13] of 80.8%, a viability, T/C [14] of 56.7% and a viability, T/C [15] of 77.8%. The viability, T/C [16] was 42.5%, the viability, T/C [17] was 1.19% and the viability, T/C [18] was 0.85%. For the same compound, the viability, T/C [19] was 69.1%, the viability, T/C [20] was 64.6% and the viability, T/C [21] was 80.3%. For the same compound, the viability, T/C [22] was 44.1%, the viability, T/C [23] was 0.37% and the viability, T/C [24] was 0.24%. For the same compound, the viability, T/C [25] was 63.1%, the viability, T/C [26] was 67.6% and the viability, T/C [27] was 82.9%. For the same compound, the viability, T/C [28] was 23.8%, the viability, T/C [29] was 0.6% and the viability, T/C [30] was 0.4%. The viability, T/C [31] was 44.3%, the viability, T/C [32] was 61.6% and the viability, T/C [33] was 52.7%. It also gave a viability, T/C [34] of 0.52%, a viability, T/C [35] of 0.72% and a viability, T/C [36] of 0.28%. For the same compound, the viability, T/C [37] was 45.2%, the viability, T/C [38] was 43.8% and the viability, T/C [39] was 20.7%. The viability, T/C [40] was 0.36%, the viability, T/C [41] was 0.41% and the viability, T/C [42] was 0.29%.
For CC[C@@]1(O)C(=O)OCc2c1cc1n(c2=O)Cc2cc3c(CN(C)C)c(O)ccc3nc2-1, the viability, T/C (compound 0.000999 µM) was 116% and 95.5% and 102%, the viability, T/C (compound 0.00316 µM) was 96.2% and 89.7% and 95.8% and the viability, T/C (compound 0.00999 µM) was 128% and 70.9% and 96.4%. For the same compound, the viability, T/C (compound 0.0316 µM) was 94.6% and 72% and 86.3%, the viability, T/C (compound 0.0999 µM) was 68.6% and 55% and 64.9% and the viability, T/C (compound 0.316 µM) was 68.7% and 50.2% and 51.1%. The IC50 (curve of compound) was > 316 nM and 305 nM.
In the case of O=c1[nH]cc(F)c(=O)[nH]1, the viability, T/C (compound 0.0316 µM) is reported as 133% and 103% and 95.3%, the viability, T/C (compound 0.1 µM) is reported as 97.8% and 107% and 117% and the viability, T/C (compound 0.316 µM) is reported as 85.5% and 104% and 88.7%. The viability, T/C (compound 1 µM) was 105% and 96.9% and 91.4%, the viability, T/C (compound 3.16 µM) was 97% and 95.8% and 105% and the viability, T/C (compound 10 µM) was 86.7% and 77.5% and 79.2%. For the same compound, the IC50 (curve of compound) was > 10000 nM.
CC1COCCN1c1cc(C2(O)CC3CCC(C2)O3)c2cnn(-c3ccn[nH]3)c2n1 (stereo not drawn) + CN(C)c1ccc(Nc2c3ccc(NC(=O)CCN4CCCC4)cc3nc3cc(NC(=O)CCN4CCCC4)ccc23)cc1 gave an IC50 [1] of 72.8 nM, an IC50 [2] of 90 nM and an IC50 [3] of 130 nM. The IC50 [4] was 162 nM, the IC50 [5] was 146 nM and the IC50 [6] was 46 nM. For the same compound, the viability, T/C [7] was 58.7%, the viability, T/C [8] was 45.8% and the viability, T/C [9] was 34.9%. The viability, T/C [10] was 32.9%, the viability, T/C [11] was 25.2% and the viability, T/C [12] was 13.9%. For the same compound, the viability, T/C [13] was 60.5%, the viability, T/C [14] was 49.3% and the viability, T/C [15] was 34.3%. It also gave a viability, T/C [16] of 32.7%, a viability, T/C [17] of 28.2% and a viability, T/C [18] of 12.7%. The viability, T/C [19] was 74.8%, the viability, T/C [20] was 49% and the viability, T/C [21] was 36.5%. For the same compound, the viability, T/C [22] was 37.1%, the viability, T/C [23] was 28.6% and the viability, T/C [24] was 15.4%. For the same compound, the viability, T/C [25] was 68.5%, the viability, T/C [26] was 44.6% and the viability, T/C [27] was 44.3%. It also gave a viability, T/C [28] of 35.6%, a viability, T/C [29] of 36.1% and a viability, T/C [30] of 12.4%. The viability, T/C [31] was 61.8%, the viability, T/C [32] was 55.9% and the viability, T/C [33] was 35.1%. For the same compound, the viability, T/C [34] was 39.6%, the viability, T/C [35] was 25.6% and the viability, T/C [36] was 9.44%. The viability, T/C [37] was 58.5%, the viability, T/C [38] was 34.5% and the viability, T/C [39] was 27.6%. It also gave a viability, T/C [40] of 23.7%, a viability, T/C [41] of 26.6% and a viability, T/C [42] of 3.21%.
